For 5 compounds, IC50 results are on record in ChEMBL document CHEMBL1201862, “PubChem BioAssay data set” (2004).

In assay [1] the target is T1, Caspase-3 (Homo sapiens, UniProt P42574).
T1 sequence (P42574 whole entry): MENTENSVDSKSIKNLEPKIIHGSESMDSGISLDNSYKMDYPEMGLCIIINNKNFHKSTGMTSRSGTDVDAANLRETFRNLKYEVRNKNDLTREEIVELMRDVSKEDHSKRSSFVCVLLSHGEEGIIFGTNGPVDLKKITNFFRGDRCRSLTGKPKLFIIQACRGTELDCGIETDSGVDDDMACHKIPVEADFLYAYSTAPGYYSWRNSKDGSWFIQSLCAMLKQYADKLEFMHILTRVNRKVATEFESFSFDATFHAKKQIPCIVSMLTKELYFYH
Briefly: SAR Analysis of small molecule inhibitors of Sentrin-specific proteases (SENPs) using a Caspase-3 Selectivity assay. [Related pubchem assays (depositor defined):AID2540, AID2599, AID434973, AID489001]. Type of assay: functional.

In assay [2] the target is T2, Sentrin-specific protease 7 (Homo sapiens, UniProt Q9BQF6).
T2 sequence (Q9BQF6 whole entry): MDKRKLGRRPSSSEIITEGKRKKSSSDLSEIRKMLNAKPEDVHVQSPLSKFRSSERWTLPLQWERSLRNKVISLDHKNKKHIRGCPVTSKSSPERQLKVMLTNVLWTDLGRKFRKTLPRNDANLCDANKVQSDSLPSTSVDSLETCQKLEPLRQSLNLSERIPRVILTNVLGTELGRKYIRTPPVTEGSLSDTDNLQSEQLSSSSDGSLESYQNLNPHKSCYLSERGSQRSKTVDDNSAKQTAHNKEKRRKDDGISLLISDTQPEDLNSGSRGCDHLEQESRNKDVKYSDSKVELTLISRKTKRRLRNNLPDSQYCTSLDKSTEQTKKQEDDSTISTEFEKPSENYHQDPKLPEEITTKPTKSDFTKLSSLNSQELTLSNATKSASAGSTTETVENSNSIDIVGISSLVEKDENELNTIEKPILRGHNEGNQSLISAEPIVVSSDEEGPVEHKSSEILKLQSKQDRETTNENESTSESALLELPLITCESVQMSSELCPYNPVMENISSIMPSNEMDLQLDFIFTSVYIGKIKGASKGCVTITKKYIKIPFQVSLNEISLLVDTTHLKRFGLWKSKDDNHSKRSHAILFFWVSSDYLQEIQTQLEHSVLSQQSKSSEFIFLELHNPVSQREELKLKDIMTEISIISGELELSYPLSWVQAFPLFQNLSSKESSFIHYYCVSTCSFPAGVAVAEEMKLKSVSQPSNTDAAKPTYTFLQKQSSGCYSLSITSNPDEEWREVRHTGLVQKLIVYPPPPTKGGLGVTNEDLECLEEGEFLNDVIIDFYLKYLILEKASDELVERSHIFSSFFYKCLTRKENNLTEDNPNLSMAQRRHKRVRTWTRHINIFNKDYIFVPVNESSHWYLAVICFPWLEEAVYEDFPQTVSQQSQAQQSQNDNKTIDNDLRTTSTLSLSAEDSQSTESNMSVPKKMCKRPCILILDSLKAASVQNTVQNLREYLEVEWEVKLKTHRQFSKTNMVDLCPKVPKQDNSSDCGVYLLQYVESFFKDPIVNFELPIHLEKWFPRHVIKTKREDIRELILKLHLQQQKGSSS
Briefly: inhibition of human SENP7 cleavage activity – biochemical, luminescence, SAR follow-up (AID 504497). The class given is functional.

The target of assay [3] is T3, Sentrin-specific protease 8 (Homo sapiens, UniProt Q96LD8).
T3 sequence (Q96LD8 whole entry): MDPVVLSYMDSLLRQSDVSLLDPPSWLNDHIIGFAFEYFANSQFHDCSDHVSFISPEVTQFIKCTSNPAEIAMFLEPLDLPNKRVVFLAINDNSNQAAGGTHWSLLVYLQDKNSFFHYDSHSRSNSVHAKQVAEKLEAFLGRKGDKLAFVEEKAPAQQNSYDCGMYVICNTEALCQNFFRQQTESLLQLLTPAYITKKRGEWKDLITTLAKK
The experiment in a line: inhibition of human SENP8 cleavage activity – biochemical, luminescence, SAR follow-up (AID 504501). The class given is functional.

Assay [4] deals with T4, Sentrin-specific protease 6 (Homo sapiens, UniProt Q9GZR1).
T4 sequence (Q9GZR1 whole entry): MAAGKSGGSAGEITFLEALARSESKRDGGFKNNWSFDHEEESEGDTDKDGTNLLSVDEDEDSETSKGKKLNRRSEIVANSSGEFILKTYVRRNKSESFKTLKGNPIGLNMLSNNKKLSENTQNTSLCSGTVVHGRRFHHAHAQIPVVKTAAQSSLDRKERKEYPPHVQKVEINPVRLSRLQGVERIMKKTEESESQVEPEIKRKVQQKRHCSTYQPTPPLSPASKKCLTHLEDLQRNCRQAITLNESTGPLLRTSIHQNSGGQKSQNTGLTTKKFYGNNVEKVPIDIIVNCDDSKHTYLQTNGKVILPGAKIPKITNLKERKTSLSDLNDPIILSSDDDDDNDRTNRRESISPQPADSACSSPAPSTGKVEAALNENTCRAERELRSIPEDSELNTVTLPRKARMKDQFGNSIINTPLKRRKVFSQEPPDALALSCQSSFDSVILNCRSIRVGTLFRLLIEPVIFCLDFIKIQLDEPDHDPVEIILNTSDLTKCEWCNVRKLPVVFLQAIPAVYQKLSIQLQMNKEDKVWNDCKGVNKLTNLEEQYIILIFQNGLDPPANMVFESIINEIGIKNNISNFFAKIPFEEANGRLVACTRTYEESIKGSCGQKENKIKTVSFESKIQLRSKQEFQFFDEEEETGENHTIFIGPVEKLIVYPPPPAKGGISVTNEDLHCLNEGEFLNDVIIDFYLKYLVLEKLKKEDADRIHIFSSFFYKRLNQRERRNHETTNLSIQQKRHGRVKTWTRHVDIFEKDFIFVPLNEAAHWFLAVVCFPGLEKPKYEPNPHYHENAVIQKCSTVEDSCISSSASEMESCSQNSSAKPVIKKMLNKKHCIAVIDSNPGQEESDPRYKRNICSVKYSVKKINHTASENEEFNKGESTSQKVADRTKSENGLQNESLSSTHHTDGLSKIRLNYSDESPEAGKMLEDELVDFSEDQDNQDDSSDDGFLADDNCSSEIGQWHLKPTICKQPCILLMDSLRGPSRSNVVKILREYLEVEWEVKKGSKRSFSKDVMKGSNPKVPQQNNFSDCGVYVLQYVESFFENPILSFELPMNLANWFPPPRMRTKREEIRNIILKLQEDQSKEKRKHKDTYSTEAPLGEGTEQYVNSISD
The experiment in a line: SAR Analysis of small molecule inhibitors of Sentrin-specific protease 6 (SENP6) using a Luminescent assay. [Related pubchem assays (depositor defined):AID2582, AID2599]. Type of assay: functional.

Assay [5] deals with T5, Cysteine protease ATG4B (Homo sapiens, UniProt Q9Y4P1).
T5 sequence (Q9Y4P1 whole entry): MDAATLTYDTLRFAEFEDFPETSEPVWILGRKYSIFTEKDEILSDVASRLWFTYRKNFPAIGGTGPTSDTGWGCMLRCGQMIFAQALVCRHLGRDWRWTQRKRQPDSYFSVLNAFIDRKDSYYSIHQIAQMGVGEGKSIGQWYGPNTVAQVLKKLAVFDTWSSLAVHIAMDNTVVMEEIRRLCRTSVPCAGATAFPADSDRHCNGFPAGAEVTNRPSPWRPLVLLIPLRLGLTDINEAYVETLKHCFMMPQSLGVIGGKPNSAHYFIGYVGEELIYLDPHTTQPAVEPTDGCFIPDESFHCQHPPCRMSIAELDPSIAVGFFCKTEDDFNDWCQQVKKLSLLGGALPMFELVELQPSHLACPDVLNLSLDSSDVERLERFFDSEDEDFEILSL
Type of assay: functional.

The target of assay [6] is Phospholipase A2 (Homo sapiens, UniProt P04054). Type of assay: functional.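 Further: confirmatory dose-response counterscreen on phospholipase A2, testing hits that came from an ultra-high-throughput screen for ATG4B inhibitors.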
For assay [7], the target named is T3, Sentrin-specific protease 8. Type of assay: functional.
Assay [8] addresses T2, Sentrin-specific protease 7. The class given is functional.
Assay [9] addresses T4, Sentrin-specific protease 6. Type of assay: functional.
In assay [10] the target is T1, Caspase-3. The class given is functional.
Assay [11] concerns the target Beta Lactamase (Pseudomonas aeruginosa, UniProt Q932Y6). The experiment in a line: BLA reporter interference, concentration series – BLA reporter cells, FRET fluorescence, artefact control for TLR9-MyD88 binding inhibitor project, dose response (AID 588341).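 Further: cell based assay in CHO-K1 cells stably expressing beta-lactamase.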 The class given is cell-based.
The test system of assay [12] is CHO. The experiment in a line: CHO cell viability loss, potency – luminescence, cytotoxicity control for TLR9-MyD88 binding inhibitor project, dose response (AID 588339).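 Further: CHO cells stably coexpressing TLR9 and MyD88 fusions from primary screen; compound exposure lasted 48 hours before viability readout.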 Type of assay: functional, cell-based, hamster. The following applies: Cricetulus griseus.
Assay [13] has as its target T3, Sentrin-specific protease 8. Briefly: inhibition of sentrin protease 8 – biochemical, luminescence, set 2, SAR follow-up (AID 588601). The class given is functional.
Assay [14] deals with T1, Caspase-3. Briefly: inhibition of recombinant caspase-3 activity – biochemical, luminescence, set 2, selectivity assay for SENP protease inhibitor project, SAR follow-up (AID 588599). Type of assay: functional.

SMILES strings stand for the structures. Calls of active or inactive are those of the source. For most assays here, no stated cut-off is given here; in the data, actives have a measured IC50 and inactives only a lower limit.

Phospholipase A2, sequence (P04054 whole entry): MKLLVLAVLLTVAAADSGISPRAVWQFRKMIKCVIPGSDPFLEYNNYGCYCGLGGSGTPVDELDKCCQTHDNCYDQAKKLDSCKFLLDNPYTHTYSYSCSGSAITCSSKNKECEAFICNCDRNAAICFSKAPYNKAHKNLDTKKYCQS
Beta Lactamase, sequence (Q932Y6 whole entry, the tested form may be a part): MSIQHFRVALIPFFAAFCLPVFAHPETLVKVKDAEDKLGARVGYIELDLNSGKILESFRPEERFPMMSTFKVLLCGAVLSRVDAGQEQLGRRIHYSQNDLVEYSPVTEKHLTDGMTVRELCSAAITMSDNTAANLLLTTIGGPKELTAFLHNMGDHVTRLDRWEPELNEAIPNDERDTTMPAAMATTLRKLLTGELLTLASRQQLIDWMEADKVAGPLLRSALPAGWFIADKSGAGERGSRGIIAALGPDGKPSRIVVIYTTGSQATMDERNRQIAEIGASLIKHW

Usually IC50 stands for the point on the concentration scale where inhibition reaches its midpoint. Take `Nc1ccccc1-c1noc(/C=C/c2ccccc2Cl)n1`: the IC50 in [1] was > 99 µM (inactive); in assay [2] it was 71.3 µM (active); in [3], > 99 µM (inactive); in [4], > 99 µM (inactive).

In the case of `CC(C)c1ccc(NC2CCCN(C(=O)c3[nH]nc4c3CCC4)C2)cc1` (stereo unspecified), the IC50 in [5] was 11.8 µM (active); in assay [6], 5.99 µM (active).

Turning to `O=C(Nc1ccc(Br)cc1)c1ccc2c(c1)OCO2`, the IC50 in assay [7] is > 100 µM (inactive); in assay [1], 8.29 µM (active); in assay [8], 3.75 µM (active); in [9], > 100 µM (inactive); in assay [2], 4.45 µM (active); in assay [3], > 99 µM (inactive). Moreover, the results for the IC50 in assay [4] and in assay [10] were > 99 µM (inactive) and 22.1 µM (active), respectively.

Turning to `COc1ccc(/C=N/Nc2ccc([N+](=O)[O-])cc2)cc1O`, the values for the IC50 in [11] and in assay [12] were 10.7 µM (inactive) and 45.1 µM (inactive), respectively.

Regarding `Cc1ccc(C(=O)Nc2nc3ccc(Cl)cc3s2)o1`, the IC50 in assay [1] was 11 µM (active); in assay [13] it was 1.65 µM (active); in assay [14], 2.53 µM (active); in assay [3], 3 µM (active); in assay [4], 25 µM (active).
